The results in this text go back to patent US20260034170A1, “NITRIC OXIDE TOPICAL APPLICATION APPARATUS AND METHODS” (NOxy Health Products, Inc., priority 2016, published 2026).

This test has as its system bacteria on a surface, such as a person's skin. Nature of the test: dose of nitric oxide required to kill bacteria on a surface.

On to `[N]=O` [nitric oxide], for which the “dose required to kill bacteria on a surface” value was at least 320 ppm.
